Experimental findings from PubChem BioAssay (NCI) are described below.

Among the test systems are EKVX NSCLC; SK-MEL-2 melanoma; UACC-62 melanoma; SW-620 colon; IGROV1 ovarian; MOLT-4 leukemia; HL-60(TB) leukemia; OVCAR-5 ovarian; NCI-H226 lung.
Assay in all cases: growth of human tumour cells (NCI), 48 h

Where “and” joins values, the source holds several entries; their conditions need not be identical. Equal values may be shown once.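 The compound was tested at five concentrations on cells cultured in 96-well plates, with a 48-hour exposure period. The concentration for 50% growth inhibition is given as GI50. TGI: total growth inhibition.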 A value given as a limit tells only on which side of the number the result lay.

Regarding `COc1ccc(OCC(=O)O)c2c1CCC(C(C)C)C2=O` (configuration not stated), the TGI in the experiment on EKVX NSCLC, with SK-MEL-2 melanoma, in the experiment with UACC-62 melanoma, in the experiment with SW-620 colon, in the experiment on IGROV1 ovarian and with MOLT-4 leukemia was above 100 µM in each case. The TGI in the experiment on HL-60(TB) leukemia and with OVCAR-5 ovarian was above 100 µM throughout.
For the compound `O=C1C2C(C(=O)N1O)N(Cc1ccccc1)C(=O)N2Cc1ccccc1` (configuration not stated), the TGI with NCI-H226 lung, in the experiment with EKVX NSCLC, with UACC-62 melanoma, in the experiment with SW-620 colon, with IGROV1 ovarian and in the experiment on MOLT-4 leukemia was above 100 µM in each case. The TGI in the experiment on HL-60(TB) leukemia and with OVCAR-5 ovarian was above 100 µM in each case.
Turning to `O=C1NC(=O)C(C(=O)C(=O)Nc2ccc(Br)cc2)C(=O)N1`, the TGI in the experiment with NCI-H226 lung, with EKVX NSCLC, in the experiment with UACC-62 melanoma, in the experiment with SW-620 colon, in the experiment on IGROV1 ovarian and in the experiment with MOLT-4 leukemia was above 100 µM each time. The TGI in the experiment on HL-60(TB) leukemia is above 100 µM.
As for `Oc1cccc2c1NC1=C(CCC/C1=C\c1ccccc1)C2`, the TGI with NCI-H226 lung, with EKVX NSCLC, with SW-620 colon, in the experiment on IGROV1 ovarian, in the experiment on MOLT-4 leukemia and in the experiment on HL-60(TB) leukemia was above 100 µM throughout.
Turning to `O=S(=O)([O-])[O-].[OH3+].[OH3+].[OH3+].[Ru+2].c1ccccc1`, the GI50 in the experiment with NCI-H226 lung, in the experiment with EKVX NSCLC, with SK-MEL-2 melanoma, in the experiment on IGROV1 ovarian, with MOLT-4 leukemia and in the experiment with HL-60(TB) leukemia was above 100 µM each time. Also, the GI50 in the experiment on OVCAR-5 ovarian was above 100 µM. In addition, the TGI with NCI-H226 lung, with EKVX NSCLC, with SK-MEL-2 melanoma, in the experiment with IGROV1 ovarian, in the experiment on MOLT-4 leukemia and in the experiment with HL-60(TB) leukemia was above 100 µM in each case. This compound had a TGI in the experiment with OVCAR-5 ovarian above 100 µM.
As for `O=C(CCN1CCN(c2cccc(Cl)c2)CC1)N1CCc2c([nH]c3ccccc23)C1c1cccnc1` (configuration not stated), the TGI in the experiment with NCI-H226 lung is 49.9 µM; in the experiment with EKVX NSCLC, 26.3 µM; in the experiment with SK-MEL-2 melanoma, 18.2 µM; in the experiment with SW-620 colon, 23.8 µM; in the experiment with IGROV1 ovarian, above 100 µM; in the experiment on MOLT-4 leukemia, 26.6 µM. For the same compound, the TGI in the experiment with HL-60(TB) leukemia was 5.53 µM and 11.2 µM; in the experiment on OVCAR-5 ovarian, 23.3 µM. Also, the GI50 with SK-MEL-2 melanoma is 5.24 µM; in the experiment on IGROV1 ovarian, 18.7 µM; in the experiment on MOLT-4 leukemia, 4.65 µM; with HL-60(TB) leukemia, 3.19 µM; in the experiment on OVCAR-5 ovarian it was 5.75 µM.
Regarding `CC(Cn1c2c3ccccc3ccc2c2oc(=O)c3ccccc3c21)N(C)C` (configuration not stated), the TGI with EKVX NSCLC, in the experiment on SK-MEL-2 melanoma, in the experiment with UACC-62 melanoma, in the experiment with SW-620 colon, in the experiment on IGROV1 ovarian and in the experiment on MOLT-4 leukemia was above 100 µM in each case. Further, the TGI in the experiment with HL-60(TB) leukemia and in the experiment on OVCAR-5 ovarian was above 100 µM throughout.
On to `O=C1C=CC(=O)c2c1ccc1c3ccccc3n(-c3ccccn3)c21`, for which the TGI in the experiment with NCI-H226 lung was 82.7 µM; in the experiment with EKVX NSCLC, 43.4 µM; in the experiment with SK-MEL-2 melanoma, above 100 µM; in the experiment on MOLT-4 leukemia it was 84.5 µM; in the experiment with HL-60(TB) leukemia, 31.4 µM; with OVCAR-5 ovarian, above 100 µM.
In the case of `CCCc1c2c([nH]c(=O)c1C)C(=O)c1[nH]c(=O)c(C)c(CCC)c1C2=O`, the TGI is above 100 µM in the experiment on NCI-H226 lung; 20.2 µM in the experiment with SW-620 colon; 88.4 µM in the experiment with IGROV1 ovarian; 57 µM in the experiment on MOLT-4 leukemia; 24.8 µM with HL-60(TB) leukemia; above 100 µM in the experiment with OVCAR-5 ovarian.
Turning to `COc1cccc(N2C(=O)c3c(c4[nH]c5ccccc5c4c4ccc(C(C)(C)C)cc34)C2=O)c1`, the TGI in the experiment on NCI-H226 lung, with EKVX NSCLC, in the experiment with SK-MEL-2 melanoma, in the experiment on UACC-62 melanoma, in the experiment with SW-620 colon and in the experiment on IGROV1 ovarian was above 100 µM in each case. The TGI in the experiment with MOLT-4 leukemia and in the experiment with OVCAR-5 ovarian was above 100 µM each time.
Turning to `COc1ccc2[nH]cc(CCNC(C)=O)c2c1`, the TGI was above 100 µM with EKVX NSCLC; above 100 µM with SK-MEL-2 melanoma; above 100 µM with UACC-62 melanoma; 24.1 µM with SW-620 colon; above 100 µM in the experiment on IGROV1 ovarian; above 100 µM in the experiment with MOLT-4 leukemia. The TGI with HL-60(TB) leukemia and with OVCAR-5 ovarian was above 100 µM in each case.
On to `COC(=O)c1c[nH]cc1CCc1c[nH]cc1C(=O)OC`, for which the TGI with NCI-H226 lung, in the experiment on EKVX NSCLC, in the experiment with SK-MEL-2 melanoma, with SW-620 colon, with IGROV1 ovarian and in the experiment on MOLT-4 leukemia was above 100 µM in each case. Also, the TGI with HL-60(TB) leukemia and with OVCAR-5 ovarian was above 100 µM each time.
In the case of `CN(C)c1ccc(-c2cc(=O)c3ccccc3[nH]2)cc1`, the TGI in the experiment on NCI-H226 lung, with EKVX NSCLC, with SW-620 colon, in the experiment with IGROV1 ovarian, with MOLT-4 leukemia and in the experiment on HL-60(TB) leukemia was above 100 µM in each case.
On to `CC[C@@H]1C[C@@H]2CN3CCc4c([nH]c5ccc(OC)cc45)C(COC(=O)c4ccc(OC)c(OC)c4)(C2)C13`, for which the TGI was 33.8 µM with NCI-H226 lung; above 100 µM with EKVX NSCLC; 28 µM in the experiment with UACC-62 melanoma; 40.1 µM in the experiment with SW-620 colon; 74.5 µM with IGROV1 ovarian; 62.3 µM in the experiment with MOLT-4 leukemia. Further, the TGI in the experiment on HL-60(TB) leukemia is 39.2 µM; in the experiment with OVCAR-5 ovarian it was above 100 µM.
As to `CC(=O)Nc1ccc(/C=C(\NC(=O)c2ccccc2)c2nc3ccc4c(c3[nH]2)C(=O)c2ccccc2C4=O)cc1`, the TGI in the experiment with NCI-H226 lung, with EKVX NSCLC, with SK-MEL-2 melanoma, in the experiment on UACC-62 melanoma, in the experiment on SW-620 colon and in the experiment on IGROV1 ovarian was above 100 µM in each case. Besides, the values for the TGI in the experiment with MOLT-4 leukemia and in the experiment with OVCAR-5 ovarian were 49.3 µM and above 100 µM, respectively.
`CC(=O)N1CCC2(C=Nc3ccccc32)CC1`: the TGI in the experiment on EKVX NSCLC, with SK-MEL-2 melanoma, in the experiment on UACC-62 melanoma, in the experiment with SW-620 colon, in the experiment on IGROV1 ovarian and in the experiment on MOLT-4 leukemia was above 100 µM each time. In addition, the TGI in the experiment on HL-60(TB) leukemia and with OVCAR-5 ovarian was above 100 µM in each case.
For the compound `CSC(=S)c1ccc(C(=S)SC)cc1`, the TGI with NCI-H226 lung, in the experiment with EKVX NSCLC, in the experiment on UACC-62 melanoma, with SW-620 colon, in the experiment with IGROV1 ovarian and in the experiment on MOLT-4 leukemia was above 100 µM in each case. The TGI with HL-60(TB) leukemia and in the experiment on OVCAR-5 ovarian was above 100 µM each time.
`C/C(=N\NC(=S)N1CCCCCC1)c1nccnc1C`: the TGI in the experiment on SK-MEL-2 melanoma was 50.2 µM; with UACC-62 melanoma, 1.3 µM; in the experiment with SW-620 colon, above 100 µM; in the experiment on HL-60(TB) leukemia, 2.95 µM; in the experiment with OVCAR-5 ovarian, above 100 µM.
Regarding `Cn1ncc(=S)[nH]c1=S`, the TGI in the experiment with NCI-H226 lung, in the experiment with EKVX NSCLC, in the experiment with SK-MEL-2 melanoma, in the experiment with UACC-62 melanoma, in the experiment with SW-620 colon and in the experiment on IGROV1 ovarian was above 100 µM throughout. For the same compound, the TGI with MOLT-4 leukemia and in the experiment on OVCAR-5 ovarian was above 100 µM in each case.
With `CC(C)C(C(=O)O)N(CC1(O)OCC(O)C(O)C1O)N=O` (configuration not stated), the TGI in the experiment with EKVX NSCLC, in the experiment with SK-MEL-2 melanoma, with UACC-62 melanoma, in the experiment on SW-620 colon, with IGROV1 ovarian and in the experiment on MOLT-4 leukemia was above 100 µM throughout. The TGI in the experiment on HL-60(TB) leukemia and in the experiment on OVCAR-5 ovarian was above 100 µM each time.
Regarding `O=C(Nc1ccc(Cl)c(C(F)(F)F)c1)C(=O)C(C(=O)/C=C/c1ccccc1)C1OC(=O)c2ccccc21` (configuration not stated), the TGI in the experiment on NCI-H226 lung, in the experiment with EKVX NSCLC, with UACC-62 melanoma, in the experiment with SW-620 colon, with IGROV1 ovarian and with MOLT-4 leukemia was above 100 µM throughout. The TGI with HL-60(TB) leukemia and in the experiment on OVCAR-5 ovarian was above 100 µM each time.
Turning to `CCCCCCCCCCCCN1C(C)=CS/C1=C\C=C\c1scc(C)[n+]1CCCCCCCCCCCC`, the GI50 in the experiment on NCI-H226 lung is 2.34 µM; in the experiment with UACC-62 melanoma, 1.1 µM; with SW-620 colon it was 1.71 µM; with MOLT-4 leukemia, 2.55 µM; with OVCAR-5 ovarian, 2.3 µM. Besides, the TGI is above 100 µM with NCI-H226 lung; 3.41 µM in the experiment on UACC-62 melanoma; 7.19 µM with SW-620 colon; above 100 µM in the experiment on MOLT-4 leukemia; 9.43 µM in the experiment with OVCAR-5 ovarian.
Take `CCCN1C(=O)C/C(=C\C(C)=O)Nc2ccccc21`: the TGI with NCI-H226 lung, in the experiment on EKVX NSCLC, in the experiment on SK-MEL-2 melanoma, with UACC-62 melanoma, in the experiment on SW-620 colon and in the experiment on IGROV1 ovarian was above 100 µM throughout. Also, the TGI in the experiment with MOLT-4 leukemia and with OVCAR-5 ovarian was above 100 µM each time.
As to `CCNc1nnc(CSc2nc(-c3ccccc3)c(-c3ccccc3)[nH]2)s1`, the TGI was 35 µM in the experiment with NCI-H226 lung; 44.4 µM in the experiment on EKVX NSCLC; 41.9 µM with SK-MEL-2 melanoma; 44.1 µM with SW-620 colon; 56.7 µM with MOLT-4 leukemia; 37 µM in the experiment with HL-60(TB) leukemia. The compound also registered a TGI in the experiment on OVCAR-5 ovarian of 39.8 µM.
